Laboratory results taken from patent US8716292B2, “Riminophenazines with 2-(heteroaryl)amino substituents and their anti-microbial activity” (priority 2010, dated 2014).
In brackets after ≈: the same amount, converted by molar mass. Like-named read-outs stand apart in the source and are kept apart here.

System: Mycobacterium tuberculosis H37Rv strains
Experiment: In vitro assay for antimicrobial susceptibility (microplate Alamar blue MIC)
Assay type: cell-based
Settings: Mycobacterium tuberculosis, H37RV, read-out: MIC (μg/mL) against H37Rv
[1] = in vitro, Mycobacterium tuberculosis H37Rv strains
[2] = 7H9, Alamar blue, inhibition ≧90%

Structure (SMILES)	MIC [1]	MIC [2]
COc1ncccc1Nc1cc2nc3ccccc3n(-c3ccccc3OC(F)(F)F)c-2c/c1=N\C1CCC(OC)CC1 (stereo not drawn) [TBI-1044, 5-(2-Trifluoromethoxyphenyl)-3-(4-methoxycyclohexyl)imino-2-(2-methoxy-3-pyridyl)amino-3,5-dihydrophenazine]	0.25 µg/mL (≈ 0.424 µM)	
COc1ncccc1Nc1cc2nc3ccccc3n(-c3ccccc3OC(F)(F)F)c-2c/c1=N\C1CCOCC1 [TBI-1045, 5-(2-Trifluoromethoxyphenyl)-3-(4-tetrahydropyranyl)imino-2-(2-methoxy-3-pyridyl)amino-3,5-dihydrophenazine]	0.4 µg/mL (≈ 0.712 µM)	
COc1ncccc1Nc1cc2nc3ccccc3n(-c3ccccc3OC(F)(F)F)c-2c/c1=N\C(C)C [TBI-1046, 5-(2-Trifluoromethoxyphenyl)-3-(1-methylethyl)imino-2-(2-methoxy-3-pyridyl)amino-3,5-dihydrophenazine]	0.44 µg/mL (≈ 0.847 µM)	
COc1ncccc1Nc1cc2nc3ccccc3n(-c3ccccc3OC(F)(F)F)c-2c/c1=N\C1CCCCC1 [TBI-1047, 5-(2-Trifluoromethoxyphenyl)-3-cyclohexylimino-2-(2-methoxy-3-pyridyl)amino-3,5-dihydrophenazine]	0.465 µg/mL (≈ 0.831 µM)	
COCC(COC)/N=c1\cc2n(-c3ccc(F)cc3)c3ccccc3nc-2cc1Nc1cccnc1OC [TBI-1048, 5-(4-Fluorophenyl)-3-(1,3-dimethoxyisopropyl)imino-2-(2-methoxy-3-pyridyl)amino-3,5-dihydrophenazine]	0.226 µg/mL (≈ 0.44 µM)	
COCC(C/N=c1\cc2n(-c3ccc(F)cc3)c3ccccc3nc-2cc1Nc1cccnc1OC)OC (stereo not drawn) [TBI-1049, 5-(4-Fluorophenyl)-3-(2,3-dimethoxy-1-propyl)imino-2-(2-methoxy-3-pyridyl)amino-3,5-dihydrophenazine]	0.162 µg/mL (≈ 0.315 µM)	
CC(C)/N=c1\cc2n(-c3ccc(Cl)cc3)c3ccccc3nc-2cc1Nc1ncccn1 [TBI-1051, 5-(4-chlorophenyl)-3-(1-methylethyl)imino-2-(pyrimidin-2-yl)amino-3,5-dihydrophenazine]		0.015 µg/mL (≈ 0.034 µM)
CC(C)/N=c1\cc2n(-c3ccc(F)cc3)c3ccccc3nc-2cc1Nc1ncccc1[N+](=O)[O-] [TBI-1052, 5-(4-Fluorophenyl)-3-(1-methylethyl)imino-2-(3-nitro-2-pyridyl)amino-3,5-dihydrophenazine]		0.022 µg/mL (≈ 0.047 µM)
CC(C)/N=c1\cc2n(-c3ccc(F)cc3)c3ccccc3nc-2cc1Nc1ncccn1 [TBI-1053, 5-(4-Fluorophenyl)-3-(1-methylethyl)imino-2-(pyrimidin-2-yl)amino-3,5-dihydrophenazine]		0.015 µg/mL (≈ 0.0353 µM)
CC(C)/N=c1\cc2n(-c3ccc(F)cc3)c3ccccc3nc-2cc1Nc1ccccn1 [TBI-1054, 5-(4-Fluorophenyl)-3-(1-methylethyl)imino-2-(2-pyridyl)amino-3,5-dihydrophenazine]		0.446 µg/mL (≈ 1.05 µM)
CC(C)/N=c1\cc2n(-c3ccc(F)cc3)c3ccccc3nc-2cc1Nc1cnccn1 [TBI-1055, 5-(4-Fluorophenyl)-3-(1-methylethyl)imino-2-(pyrazin-2-yl)amino-3,5-dihydrophenazine]		0.022 µg/mL (≈ 0.0518 µM)
CC(C)/N=c1\cc2n(-c3ccc(F)cc3)c3ccccc3nc-2cc1Nc1ncccc1C#N [TBI-1057]		0.015 µg/mL (≈ 0.0334 µM)
COc1ncccc1Nc1cc2nc3cc(C#N)ccc3n(-c3ccc(F)cc3)c-2c/c1=N\C(C)C [TBI-1064, 8-Cyano-5-(4-fluorophenyl)-3-(1-methylethyl)imino-2-(2-methoxy-3-pyridyl)amino-3,5-dihydrophenazine]	0.24 µg/mL (≈ 0.502 µM)	
COc1ncccc1Nc1cc2nc3cc(C#N)ccc3n(-c3ccc(F)cc3)c-2c/c1=N\C1CCC(OC)CC1 (stereo not drawn) [TBI-1065, 8-Cyano-5-(4-fluorophenyl)-3-(4-methyoxycyclohexyl)imino-2-(2-methoxy-3-pyridyl)amino-3,5-dihydrophenazine]	> 16 µg/mL	
COc1ncccc1Nc1cc2nc3cc(C#N)ccc3n(-c3ccc(F)cc3)c-2c/c1=N\C1CCOCC1 [TBI-1066, 8-Cyano-5-(4-fluorophenyl)-3-(4-tetrahydropyranyl)imino-2-(2-methoxy-3-pyridyl)amino-3,5-dihydrophenazine]	> 6.64 µg/mL	
Cc1ccc(Nc2cc3nc4cc(C#N)ccc4n(-c4ccc(F)cc4)c-3c/c2=N\C(C)C)cn1 [TBI-1067, 8-Cyano-5-(4-fluorophenyl)-3-(1-methylethyl)imino-2-(6-methyl-3-pyridyl)amino-3,5-dihydrophenazine]	0.117 µg/mL (≈ 0.253 µM)	
COC1CCC(/N=c2\cc3n(-c4ccc(F)cc4)c4ccc(C#N)cc4nc-3cc2Nc2ccc(C)nc2)CC1 (stereo not drawn) [TBI-1068, 8-Cyano-5-(4-fluorophenyl)-3-(4-methyoxycyclohexyl)imino-2-(6-methyl-3-pyridyl)amino-3,5-dihydrophenazine]	0.165 µg/mL (≈ 0.31 µM)	
CC(C)/N=c1\cc2n(-c3ccc(Cl)cc3)c3ccccc3nc-2cc1Nc1ncccc1C#N [TBI-1075, 5-(4-Chlorophenyl)-3-(1-methylethyl)imino-2-(3-cyano-2-pyridyl)amino-3,5-dihydrophenazine]		0.016 µg/mL (≈ 0.0344 µM)
CC(C)/N=c1\cc2n(-c3ccc(Cl)cc3)c3ccccc3nc-2cc1Nc1ccccn1 [TBI-1076, 5-(4-Chlorophenyl)-3-(1-methylethyl)imino-2-(2-pyridyl)amino-3,5-dihydrophenazine]		0.014 µg/mL (≈ 0.0318 µM)
CC(C)/N=c1\cc2n(-c3ccc(Cl)cc3)c3ccccc3nc-2cc1Nc1cnccn1 [TBI-1077]		< 0.0075 µg/mL
COC1CCC(/N=c2\cc3n(-c4ccc(F)cc4)c4ccccc4nc-3cc2Nc2ccccn2)CC1 (stereo not drawn) [TBI-1078, 5-(4-Fluorophenyl)-3-(4-methoxycyclohexyl)imino-2-(2-pyridyl)amino-3,5-dihydrophenazine]		0.028 µg/mL (≈ 0.0567 µM)
COC1CCC(/N=c2\cc3n(-c4ccc(F)cc4)c4ccccc4nc-3cc2Nc2cnccn2)CC1 (stereo not drawn) [TBI-1079, 5-(4-Fluorophenyl)-3-(4-methoxycyclohexyl)imino-2-(pyrazin-2-yl)amino-3,5-dihydrophenazine]		0.037 µg/mL (≈ 0.0748 µM)
COC1CCC(/N=c2\cc3n(-c4ccc(F)cc4)c4ccccc4nc-3cc2Nc2ncccn2)CC1 (stereo not drawn) [TBI-1080, 5-(4-Fluorophenyl)-3-(4-methoxycyclohexyl)imino-2-(pyrimidin-2-yl)amino-3,5-dihydrophenazine]		0.029 µg/mL (≈ 0.0586 µM)
COC1CCC(/N=c2\cc3n(-c4ccc(F)cc4)c4ccccc4nc-3cc2Nc2ncccc2C#N)CC1 (stereo not drawn) [TBI-1082, 5-(4-Fluorophenyl)-3-(4-methoxycyclohexyl)imino-2-(3-cyano-2-pyridyl)amino-3,5-dihydrophenazine]		0.029 µg/mL (≈ 0.0559 µM)
COC1CCC(/N=c2\cc3n(-c4ccc(F)cc4)c4ccccc4nc-3cc2Nc2ncccc2[N+](=O)[O-])CC1 (stereo not drawn) [TBI-1083, 5-(4-Fluorophenyl)-3-(4-methoxycyclohexyl)imino-2-(3-nitro-2-pyridyl)amino-3,5-dihydrophenazine]		5.81 µg/mL (≈ 10.8 µM)
Fc1ccc(-n2c3c/c(=N\C4CCOCC4)c(Nc4ncccn4)cc-3nc3ccccc32)cc1 [TBI-1084, 5-(4-Fluorophenyl)-3-(4-tetrahydropyranyl)imino-2-(pyrimidin-2-yl)amino-3,5-dihydrophenazine]		0.043 µg/mL (≈ 0.0922 µM)
Fc1ccc(-n2c3c/c(=N\C4CCOCC4)c(Nc4cnccn4)cc-3nc3ccccc32)cc1 [TBI-1085, 5-(4-Fluorophenyl)-3-(4-tetrahydropyranyl)imino-2-(pyrazin-2-yl)amino-3,5-dihydrophenazine]		0.038 µg/mL (≈ 0.0815 µM)
